Earlier results, collected in patent publication US20110245352A1, “Composition For Permeabilizing The Walls Of Microorganisms Comprising The Combination Of Ethylenediaminetetraacetic Acid (EDTA) And Polyethyleneimine (PEI)” (Millipore Corporation, priority 2007, published 2011).

Test system: gram-positive bacteria
Details: EDTA taken alone; in particular gram-positive bacteria

For `O=C(O)CN(CCN(CC(=O)O)CC(=O)O)CC(=O)O` [EDTA, Ethylenediaminetetraacetic acid], the “Permeabilization of microorganism walls for labeling of nucleic acids” value is listed as “does not allow satisfactory permeabilization”.
